According to patent US6491894B1, “NGR receptor and methods of identifying tumor homing molecules that home to angiogenic vasculature using same” (The Burnham Institute, priority 1998, dated 2002):
One block for each compound: values may come before it. Where no end group is shown, it is not given here.

How the values were obtained:
[1] = high doses; cited from earlier work
CD13 [2] = target: T1, CD13 (Gallus gallus, UniProt O57579); assay: bFGF-induced angiogenesis in chicken chorioallantoic membrane (CAM); type: in vivo; conditions: topical, 3 days
T1 construct: CD13 is expressed in CAM angiogenic vasculature; from tissue; host or cells: chorioallantoic membrane of 10-day chicken embryos
T1 sequence (O57579 1-972): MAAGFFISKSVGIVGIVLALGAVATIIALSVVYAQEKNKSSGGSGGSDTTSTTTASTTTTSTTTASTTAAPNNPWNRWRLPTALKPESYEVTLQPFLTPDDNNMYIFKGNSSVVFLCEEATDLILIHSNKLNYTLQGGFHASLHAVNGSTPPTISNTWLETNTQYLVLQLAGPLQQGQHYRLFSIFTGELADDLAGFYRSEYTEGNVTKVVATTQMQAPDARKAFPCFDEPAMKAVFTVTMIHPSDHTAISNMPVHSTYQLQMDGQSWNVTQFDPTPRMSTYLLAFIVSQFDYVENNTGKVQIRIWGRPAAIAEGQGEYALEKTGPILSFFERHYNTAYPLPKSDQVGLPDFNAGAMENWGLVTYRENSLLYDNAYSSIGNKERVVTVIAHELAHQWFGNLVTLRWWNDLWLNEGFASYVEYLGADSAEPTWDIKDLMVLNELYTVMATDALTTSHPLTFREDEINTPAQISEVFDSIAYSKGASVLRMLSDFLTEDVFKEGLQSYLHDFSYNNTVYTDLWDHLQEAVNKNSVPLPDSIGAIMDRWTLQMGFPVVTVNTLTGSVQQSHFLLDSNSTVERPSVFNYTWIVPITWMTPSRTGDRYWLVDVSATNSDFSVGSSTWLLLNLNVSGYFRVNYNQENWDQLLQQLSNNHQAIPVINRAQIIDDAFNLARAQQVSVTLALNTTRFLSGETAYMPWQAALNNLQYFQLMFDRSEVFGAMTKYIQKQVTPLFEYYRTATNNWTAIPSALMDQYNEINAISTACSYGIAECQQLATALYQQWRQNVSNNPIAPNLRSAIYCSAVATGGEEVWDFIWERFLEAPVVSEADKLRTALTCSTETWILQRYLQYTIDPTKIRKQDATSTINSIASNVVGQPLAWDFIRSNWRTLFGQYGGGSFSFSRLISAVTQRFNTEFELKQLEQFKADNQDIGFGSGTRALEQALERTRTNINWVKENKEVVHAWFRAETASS
Text: Various treatments were applied topically, and, after 3 days, the filters and surrounding CAMs were resected and fixed in formalin.
Each bar represents the mean number of vessels and standard errors from 8 CAMs on each group.

CD13/aminopeptidase N = CD13/aminopeptidase N (Homo sapiens, UniProt P15144); conditions: cited from earlier work
CD13 [3] = target: T2, CD13 (Homo sapiens, UniProt P15144); assay: Phage binding to immobilized CD13; design: Kaposi's sarcoma tumor cell octylglucoside extracts were used as a source of CD13/APN; endogenous in cells; host or cells: Kaposi's sarcoma tumor cells (octylglucoside extract); conditions: 200 μg/well
Description: In FIG. 4B, NGR-containing phage were assayed for the ability to bind CD13. […] Various phage were added to the wells at 2×10^9 transducing units (TU) per well. […] The data were expressed as means and standard errors from triplicate wells.
The data shown were expressed as means and standard errors from triplicate wells.

CD13/APN = target: T3, CD13/APN (Homo sapiens, UniProt P15144); assay: Affinity chromatography of cell extracts on immobilized peptide; type: binding; conditions: Molt-4/CD13, MDA-MB-435/CD13 or HL-60 cell extracts
T3 construct: Experiments were performed using HL-60 cell extracts because they are known to express CD13/APN; endogenous in cells; host or cells: HL-60 cells (extract)
Description: To further characterize the interaction of CD13/APN with the NGR peptide, affinity chromatography on the CNGRC peptide was performed. The column was prepared by coupling the CNGRC peptide to SEPHAROSE (Pharmacia; Piscataway N.J.). Elution was effected with soluble CNGRC peptide. […] Extracts of Molt-4 and MDA-MB-435 cells transfected with CD13/APN were also characterized by using affinity chromatography, with extracts of the mock transfected counterparts used as negative controls.
The fractions were also analyzed for CD13 enzymatic activity using AlapNA as the substrate.

[4] = system: MDA-MB-435 derived tumors; assay: In vivo targeting of phage to breast carcinoma xenografts (phage recovery); design: species or system mouse
Description: When the tumors attained a diameter of about 1 cm, phage expressing a specific RGD-containing peptide were administered to the tumor bearing mouse. Similar results to those discussed below also were obtained with nude mice bearing tumors formed by implantation of human melanoma C8161 cells or by implantation of mouse B16 melanoma cells.
1×10^9 phage expressing the RGD-containing peptide, RGD-4C ([…]; SEQ ID NO:1; see, Koivunen et al., supra, 1995) or control (insertless) phage were injected intravenously (iv) into the mice and allowed to circulate for 4 min. The mice then were snap frozen or perfused through the heart while under anesthesia, and various organs, including tumor, brain and kidney, were removed and the phage present in the organs was quantitated (see U.S. Pat. No. 5,622,699; Pasqualini and Ruoslahti, supra, 1996).
Phage displaying tumor homing peptides were recovered from breast carcinoma xenografts. […] The mean number of phage recovered from the tumor or control tissue (brain) and the standard error of the mean (SEM) from triplicate platings are shown in FIG. 1.
An insertless phage with a different selective marker (ampicillin instead of tetracycline) was co-injected with the NGR phage at the same input to assess specificity within the same tumor-bearing animal. The ratios were calculated using the number of co-injected control ampicillin-resistant phage recovered from the same tissues. The phage were quantitated from triplicate platings on tetracycline (the homing phage) or ampicillin (control phage) selective plates. Various additional control phage were injected separately into tumor-bearing mice. These controls included: fd-tet phage without insert; unselected phage library mixtures; phage selected and shown to home to other normal vascular beds; and phage displaying peptides that were unrelated to NGR. The RGD-4C ([…]; SEQ ID NO:1) phage served as a positive control.

CD13 [5] = target: T2, CD13; assay: Phage binding assays with CD13/APN-transfected cells; type: cell-based; design: expressed in transfected cells; host or cells: Molt-4 human T cell leukemia; conditions: 250 and 500 μg/ml
Description: The CNGRC phage binds specifically to cells transfected with CD13. […] Briefly, mock transfected Molt-4 cells (“Molt-4/mock”) and cells transfected with CD13 (“Molt-4/CD13”) were incubated with CNGRC (SEQ ID NO:8) phage or with control Fd phage lacking an insert (2×10^9 transducing units (TU) per sample). Synthetic peptides, CNGRC (SEQ ID NO:8) or the negative control CARAC (SEQ ID NO:221), were pre-incubated with the cells at 250 and 500 μg/ml. After extensive washing, bound phage were quantitated by infection of bacteria as described above.

[6] = Acute toxicity in mice bearing extremely large tumors; conditions: mouse, in vivo
[7] = system: MDA-MB-435 breast carcinoma; assay: Tumor therapy of mice bearing MDA-MB-435 breast carcinoma; type: in vivo, mouse
Description: Female 2-month old Balb c nu/nu mice (Harlan Sprague Dawley; San Diego Calif.) were used for these studies and were cared for according to the Burnham Institute animal facility guidelines. […] Tumors were allowed to grow to a size of about 1 cm^3 (about 5% of the mouse's body weight) before starting the treatment experiments, except for the toxicity experiments as discussed below.
Weekly doxorubicin/peptide conjugate or control treatments (5 μg/mouse/week of doxorubicin-equivalent) were administered intravenously. In some experiments, as indicated, a dose of 30 μg/mouse was administered every 3 weeks. […] As an additional control, in some experiments the tumor homing peptide was mixed with doxorubicin, without linking, and the mixture was administered to tumor bearing mice.
Mice were anesthetized with a tribromoethanol-based anesthetic mixture (AVERTIN; Papaioannou and Fox, Lab. Anim. 43:189-192 (1993)) before each treatment. Anesthetization facilitated the tail vein injections (final volume, 200 μl) and allowed precise serial three dimensional tumor size measurements. Tumor volume calculations were based on the equation for the volume of an ovaloid: V=4/3(nabc), where a, b, and c are ½ of the measured diameters in each of the three dimensions.
Briefly, mice with size-matched tumors (˜1000 mm^3) were randomized into four treatment groups (six animals per group): vehicle only, free doxorubicin, doxorubicin-control peptide, and doxorubicin-CNGRC (SEQ ID NO:8). Mice were treated at 5 μg/mouse/week of doxorubicin-equivalent, and the difference in tumor volumes between day 1 and day 28 determined (FIG. 11A).

Hodgkin's lymphoma = assay: Treatment of mice bearing Hodgkin's lymphoma; type: in vivo; conditions: two doses, 40 μg/mouse doxorubicin equivalent, tumors ~5000 mm^3
Description: Mice bearing large (˜5000 mm^3) Hodgkin's lymphoma (eight animals per group) were randomized to receive two doses of free doxorubicin plus unconjugated CNGRC peptide or doxorubicin-CNGRC (SEQ ID NO:8) conjugate at 40 μg/mouse of doxorubicin equivalent.

[8] = 5 μg/mouse/week doxorubicin-equivalent iv

T2 sequence (P15144 whole entry): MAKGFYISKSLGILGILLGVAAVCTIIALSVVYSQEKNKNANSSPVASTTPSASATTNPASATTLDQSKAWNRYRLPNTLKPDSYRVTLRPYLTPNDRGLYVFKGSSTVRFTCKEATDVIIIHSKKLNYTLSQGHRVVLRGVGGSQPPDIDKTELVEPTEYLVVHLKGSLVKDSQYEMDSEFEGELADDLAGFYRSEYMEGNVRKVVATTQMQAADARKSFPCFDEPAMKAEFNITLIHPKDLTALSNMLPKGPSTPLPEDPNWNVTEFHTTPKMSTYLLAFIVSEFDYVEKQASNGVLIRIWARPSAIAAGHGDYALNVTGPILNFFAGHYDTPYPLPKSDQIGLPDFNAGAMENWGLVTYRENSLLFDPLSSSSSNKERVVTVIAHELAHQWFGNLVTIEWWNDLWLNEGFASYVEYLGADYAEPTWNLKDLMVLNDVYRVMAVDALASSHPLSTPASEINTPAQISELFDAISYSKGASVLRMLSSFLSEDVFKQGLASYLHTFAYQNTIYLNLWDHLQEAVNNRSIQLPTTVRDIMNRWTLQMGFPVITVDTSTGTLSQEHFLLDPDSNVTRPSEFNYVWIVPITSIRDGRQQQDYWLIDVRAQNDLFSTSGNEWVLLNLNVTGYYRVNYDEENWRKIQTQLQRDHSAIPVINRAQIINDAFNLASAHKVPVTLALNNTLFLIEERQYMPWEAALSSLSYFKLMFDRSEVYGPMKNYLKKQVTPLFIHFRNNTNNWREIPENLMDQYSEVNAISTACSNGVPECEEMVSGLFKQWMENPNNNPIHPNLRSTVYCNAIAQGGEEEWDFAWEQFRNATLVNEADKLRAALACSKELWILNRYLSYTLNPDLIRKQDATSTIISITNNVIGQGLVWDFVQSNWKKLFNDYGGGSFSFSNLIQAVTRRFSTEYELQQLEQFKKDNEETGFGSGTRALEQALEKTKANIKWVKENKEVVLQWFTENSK
Chain of CD13/aminopeptidase N (P15144 whole entry): as above
T3 sequence (P15144 whole entry): as above

effect on bFGF-induced angiogenesis in CAM (CD13 [2]): suppress bFGF-induced angiogenesis
Compound: CC(C)C[C@H](NC(=O)[C@@H](O)[C@H](N)Cc1ccccc1)C(=O)O [bestatin]
effect on metastasis [1]: marked suppression of experimental and spontaneous metastasis
block of cell-surface CD13/aminopeptidase N enzymatic activity (CD13/aminopeptidase N): potently blocked

Compound: CNGRC
inhibition of NGR-phage binding to CD13 by peptide (CD13 [3]): Inhibition
elution of CD13/APN from the CNGRC column by soluble peptide (CD13/APN): yielded fractions containing functional CD13/APN
inhibition of accumulation of the two other NGR-displaying phage by co-injected soluble peptide ([4]; breast carcinoma xenografts): also inhibited the accumulation
inhibition of tumor homing of CNGRCVSGCAGRC (NGR) phage by co-injected soluble peptide ([4]; breast carcinoma xenografts): inhibited the accumulation
inhibition of tumor homing of RGD-4C phage by co-injected soluble peptide ([4]; increasing amounts of peptide): not inhibited
inhibition of CNGRC phage binding to CD13 transfected cells by synthetic peptide (CD13 [5]): blocked

Compound: doxorubicin/CNGRC (not fully specified (bridges); cysteine pairing not given here; also: doxorubicin conjugate)
toxicity compared with free doxorubicin [6]: less toxic than free doxorubicin
survival [7, 8]: A marked effect on survival
tumor size versus doxorubicin control [7, 8]: significantly smaller
survival versus doxorubicin alone ([7]; 5 μg/mouse/week or single dose 200 μg/mouse doxorubicin equivalent): lived longer
cures ([7]; mouse, in vivo): Cures were also observed
effect on tumor growth ([7]; relative to vehicle alone): almost completely suppressed tumor growth
survival versus unconjugated peptide doxorubicin mixture (Hodgkin's lymphoma): lived longer
